Data taken from article PMC10627047, “Flavone-based dual PARP-Tubulin inhibitor manifesting efficacy against endometrial cancer” (Journal of Enzyme Inhibition and Medicinal Chemistry, 2023).
Read-outs that look alike come from different tables or passages of the source.

What was measured:
Ishikawa cell lines = assay: In-vitro cytotoxicity (MTT cell viability assay); format: cell-based; conditions: Homo sapiens, read-out: IC50 values (Ishikawa cell lines, µM ± SD), in-vitro growth inhibition
Method: The cell growth inhibitory effects of the synthesised compounds were evaluated against Ishikawa cell lines. […] Forth, the synthesised compounds bearing a substituted phenyl ring at position 2 of the biaryl arm bearing benzopyrans were profiled for the cytotoxic effects. Noteworthy to mention that diverse substitutions with varied electronic effects viz fluorine (−I, +R), methoxy (−I, +R), and nitro (−I and − R) were made on the phenyl ring (position 2 of benzopyran). Also, the trimethoxy phenyl ring well established as an imperative structural feature of tubulin inhibitors was tethered to the benzopyran scaffold (20, 21).
Ishikawa cells (a human endometrial carcinoma of the epithelial cell) were kindly gifted by Dr. Geetanjali Sachdeva and Dr. Uddhav Chaudhari of National Institute for Research In Reproductive and Child Health (NIRRCH), Mumbai. […] The cells were maintained in RPMI medium supplemented with 10% Foetal bovine serum (FBS) and 100 IU/mL penicillin.
Mitochondrial activity was evaluated by MTT assay.[59] This assay is based on enzymatic reduction of the yellow-colored MTT dye to purple-colored formazan crystals by a variety of mitochondrial and cytosolic enzymes that are operational in viable cells. Briefly, […] (3000 cells/well) were seeded in 100 µL of medium into a 96-well plate and left to settle in a CO2 incubator. […] Then 150 μL of DMSO was added to each well to dissolve the formazan crystals. The optical density (OD) of each well was recorded using a microplate reader at a wavelength of 570 nm. The percentages of cell viability and growth inhibition were calculated according to the following equations. Cell viability (%) = [(OD of treated cells-OD of blank)/(OD of control-OD of blank) ×100].

[1] = Ishikawa cell lines, MTT, 48 h incubation, mean ± SD, at least three experiments

Row | SMILES | melting point [°C] | IC50 (Ishikawa cell lines; [1]) [µM] | IC50 (Ishikawa cell lines; Ishikawa, 48 h) [µM]
1 | COc1ccc(/C=C\c2cc(OC)c(OC)c(OC)c2)cc1O [Combretastatin, Combretastatin A-4, reference compound] |  | 4.21 ± 0.78 | 
2 | O=c1cc(-c2ccccc2)oc2cc(-c3ccccc3)ccc12 [Compound 1, 2,7-diphenyl-4H-chromen-4-one] | 153 to 157 | 3 ± 1.09 | 
3 | O=c1cc(-c2ccccc2)oc2cc(-c3ccoc3)ccc12 [Compound 2, 7-(Furan-3-yl)-2-phenyl-4H-chromen-4-one] | 163 to 167 | 1.5 ± 0.67 | 
4 | O=c1cc(-c2ccccc2)oc2cc(-c3cccs3)ccc12 [Compound 3, 2-phenyl-7-(thiophen-2-yl)-4H-chromen-4-one] | 186 to 189 | 2.1 ± 0.89 | 
5 | O=c1cc(-c2ccccc2)oc2cc(-c3ccc4c(c3)OCCO4)ccc12 [Compound 4, 7–(2,3-dihydrobenzo[b][1,4]dioxin-6-yl)-2-phenyl-4H-chromen-4-one] | 181 to 184 | > 10 | 
6 | O=c1cc(-c2ccccc2)oc2cc(-c3ccc4ncccc4c3)ccc12 [Compound 5, 2-phenyl-7-(quinolin-6-yl)-4H-chromen-4-one] | 136 to 140 | > 10 | 
7 | O=c1cc(-c2ccccc2)oc2cc(-c3ccc4[nH]ccc4c3)ccc12 [Compound 6, 7-(1H-indol-5-yl)-2-phenyl-4H-chromen-4-one] | 246 to 249 | > 10 | 
8 | COc1ccc(-c2cc(=O)c3ccc(-c4ccccc4)cc3o2)cc1 [Compound 7, 2–(4-methoxyphenyl)-7-phenyl-4H-chromen-4-one] | 172 to 175 | 6.3 ± 1.08 | 
9 | O=C(c1cc(Cc2n[nH]c(=O)c3ccccc23)ccc1F)N1CCN(C(=O)C2CC2)CC1 [Olaparib, reference compound] |  |  | 3.91 ± 1.06
10 | O=c1cc(-c2ccccc2)oc2ccccc12 [X, reference compound] |  | > 10 | 

Now from value to molecule, other results behind:

Row | melting point [°C] | SMILES | IC50 (Ishikawa cell lines; [1]) [µM] | IC50 (Ishikawa cell lines; Ishikawa, 48 h) [µM]
11 | 173 to 176 | COc1ccc(-c2cc(=O)c3ccc(-c4ccoc4)cc3o2)cc1 [Compound 8, 7-(Furan-3-yl)-2–(4-methoxyphenyl)-4H-chromen-4-one] | 3.2 ± 1.04 | 
12 | 180 to 184 | COc1ccc(-c2cc(=O)c3ccc(-c4cccs4)cc3o2)cc1 [Compound 9, 2–(4-methoxyphenyl)-7-(thiophen-2-yl)-4H-chromen-4-one] | 3 ± 0.785 | 
13 | 183 to 186 | COc1ccc(-c2cc(=O)c3ccc(-c4ccc5c(c4)OCCO5)cc3o2)cc1 [Compound 10, 7–(2,3-dihydrobenzo[b][1,4]dioxin-6-yl)-2–(4-methoxyphenyl)-4H-chromen-4-one] | > 10 | 
14 | 221 to 224 | COc1ccc(-c2cc(=O)c3ccc(-c4ccc5ncccc5c4)cc3o2)cc1 [Compound 11, 2–(4-methoxyphenyl)-7-(quinolin-6-yl)-4H-chromen-4-one] | > 10 | 
15 | 129 to 132 | COc1ccc(-c2cc(=O)c3ccc(-c4ccc5[nH]ccc5c4)cc3o2)cc1 [Compound 12, 7-(1H-indol-5-yl)-2–(4-methoxyphenyl)-4H-chromen-4-one] | > 10 | 
16 | 193 to 196 | O=c1cc(-c2ccc(F)cc2)oc2cc(-c3ccccc3)ccc12 [Compound 13, 2–(4-fluorophenyl)-7-phenyl-4H-chromen-4-one] | 2.03 ± 1.1 | 
17 | 202 to 205 | O=c1cc(-c2ccc(F)cc2)oc2cc(-c3cccs3)ccc12 [Compound 15, 2–(4-fluorophenyl)-7-(thiophen-2-yl)-4H-chromen-4-one] | 1.5 ± 1.08 | 
18 | 193 to 196 | O=c1cc(-c2ccc(F)cc2)oc2cc(-c3ccc4c(c3)OCCO4)ccc12 [Compound 16, 7–(2,3-dihydrobenzo[b][1,4]dioxin-6-yl)-2–(4-fluorophenyl)-4H-chromen-4-one] | > 10 | 
19 | 236 to 240 | O=c1cc(-c2ccc(F)cc2)oc2cc(-c3ccc4ncccc4c3)ccc12 [Compound 17, 2–(4-fluorophenyl)-7-(quinolin-6-yl)-4H-chromen-4-one] | > 10 | 
20 | 229 to 232 | O=c1cc(-c2ccc(F)cc2)oc2cc(-c3ccc4[nH]ccc4c3)ccc12 [Compound 18, 2–(4-fluorophenyl)-7-(1H-indol-5-yl)-4H-chromen-4-one] | > 10 | 
21 | 255 to 258 | O=c1cc(-c2ccc([N+](=O)[O-])cc2)oc2cc(-c3ccc4[nH]ccc4c3)ccc12 [Compound 19, 7-(1H-indol-5-yl)-2–(4-nitrophenyl)-4H-chromen-4-one] | > 10 | 
22 | 214 to 217 | COc1cc(-c2cc(=O)c3ccc(-c4ccc5ncccc5c4)cc3o2)cc(OC)c1OC [Compound 20, 7-(Quinolin-6-yl)-2–(3,4,5-trimethoxyphenyl)-4H-chromen-4-one] | > 10 | 
23 | 246 to 250 | COc1cc(-c2cc(=O)c3ccc(-c4ccc5[nH]ccc5c4)cc3o2)cc(OC)c1OC [Compound 21, 7-(1H-indol-5-yl)-2–(3,4,5-trimethoxyphenyl)-4H-chromen-4-one] | > 10 | 
